According to US9296723B2, “NAMPT inhibitors” (AbbVie Inc., priority 2012, dated 2016):

Legend:
NAMPT [1] = molecular target: T1, NAMPT (Homo sapiens, UniProt P43490); assay: Time-Resolved Fluorescence Resonance Energy Transfer (TR-FRET) Binding Assay of NAMPT; conditions: 6.8 nM NAMPT, 200 nM probe, equilibrated 3 hours, no substrates
Method in brief: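 IC50s come from four-parameter logistic fits of control-normalized Em520/Em495 TR-FRET ratios (Ex 337 nm) against compound concentration. Before reading, enzyme, probe, antibody and compound equilibrated for 3 h at room temperature.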

NAMPT [2] = molecular target: T1, NAMPT; assay: TR-FRET Binding Assay of NAMPT with PRPP; conditions: 2 nM NAMPT, 2 nM probe, 200 µM PRPP and 2.5 mM ATP, equilibrated 16 hours
Method in brief: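 Substrates present: PRPP at 200 µM and ATP at 2.5 mM, final, alongside 2 nM enzyme, 2 nM tracer and 1 nM terbium anti-His donor in 2% DMSO. A 16-hour equilibration preceded the time-resolved FRET read, allowing compounds to be enzymatically modified.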

PC3 cells = assay: NAMPT Cell Proliferation Assay (Cell Titer Glo); assay type: cell-based; conditions: Homo sapiens, PC-3, 120 h, incubated 5 days, cell viability
Method in brief: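 Viability measured by Cell Titer Glo luminescence after 5-day exposure of attached PC3 cells to compound, dosed as 10-fold serial dilutions ([…]) in RPMI/10% FBS at 37 °C and 5% CO2. Percent inhibition fitted to sigmoidal dose-response curves for IC50.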

T1 sequence (P43490 whole entry): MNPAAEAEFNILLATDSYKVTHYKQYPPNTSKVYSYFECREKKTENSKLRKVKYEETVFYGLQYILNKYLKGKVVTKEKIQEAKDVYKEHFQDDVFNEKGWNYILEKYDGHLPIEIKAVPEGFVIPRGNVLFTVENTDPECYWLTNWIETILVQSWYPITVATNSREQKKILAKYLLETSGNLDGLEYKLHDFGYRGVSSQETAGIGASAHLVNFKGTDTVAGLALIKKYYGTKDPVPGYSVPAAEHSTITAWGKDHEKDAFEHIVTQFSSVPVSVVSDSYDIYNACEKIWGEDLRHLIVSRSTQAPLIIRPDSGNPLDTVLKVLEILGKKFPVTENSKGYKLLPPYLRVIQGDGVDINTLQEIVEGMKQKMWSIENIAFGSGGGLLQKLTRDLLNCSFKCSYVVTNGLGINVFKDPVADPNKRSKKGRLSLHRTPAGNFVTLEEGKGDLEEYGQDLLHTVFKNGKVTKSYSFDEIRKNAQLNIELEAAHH

| Compound | IC50 (NAMPT [1]) | IC50 (NAMPT [2]) | IC50 (PC3 cells) |
| --- | --- | --- | --- |
| O=C(Nc1ccc(OC2CN(C(=O)[C@@H]3CCCO3)C2)cc1)N1CC(c2cccnc2)C1 [Example 29, 3-(pyridin-3-yl)-N-[4-({1-[(2S)-tetrahydrofuran-2-ylcarbonyl]azetidin-3-yl}oxy)phenyl]azetidine-1-carboxamide] | 53.4 nM | 0.243 nM | 66.1 nM |
| CC(C)(O)C(=O)N1CC(Oc2ccc(NC(=O)N3CC(c4cccnc4)C3)cc2)C1 [Example 30, N-(4-{[1-(2-hydroxy-2-methylpropanoyl)azetidin-3-yl]oxy}phenyl)-3-(pyridin-3-yl)azetidine-1-carboxamide] | 69.4 nM | 0.255 nM | 125 nM |
| O=C(Nc1ccc(OC2CCN(C(=O)[C@@H]3CCCO3)CC2)cc1)N1CC(c2cccnc2)C1 [Example 31, 3-(pyridin-3-yl)-N-[4-({1-[(2S)-tetrahydrofuran-2-ylcarbonyl]piperidin-4-yl}oxy)phenyl]azetidine-1-carboxamide] | 40.6 nM | 0.33 nM | 38.9 nM |
| CC(=O)N1CCC(C(=O)N2CCC(Oc3ccc(NC(=O)N4CC(c5cccnc5)C4)cc3)CC2)CC1 [Example 34, N-[4-({1-[(1-acetylpiperidin-4-yl)carbonyl]piperidin-4-yl}oxy)phenyl]-3-(pyridin-3-yl)azetidine-1-carboxamide] | 50.7 nM | 0.264 nM | 62.4 nM |
| O=C(CCN1CCOCC1)N1CCC(Oc2ccc(NC(=O)N3CC(c4cccnc4)C3)cc2)CC1 [Example 37, N-[4-({1-[3-(morpholin-4-yl)propanoyl]piperidin-4-yl}oxy)phenyl]-3-(pyridin-3-yl)azetidine-1-carboxamide] | 85.4 nM | 0.174 nM | 72.9 nM |
| CN1CCN(CCC(=O)N2CCC(Oc3ccc(NC(=O)N4CC(c5cccnc5)C4)cc3)CC2)CC1 [Example 38, N-[4-({1-[3-(4-methylpiperazin-1-yl)propanoyl]piperidin-4-yl}oxy)phenyl]-3-(pyridin-3-yl)azetidine-1-carboxamide] | 34.3 nM | 0.201 nM | 83.6 nM |
| O=C(CCN1CCCC1)N1CCC(Oc2ccc(NC(=O)N3CC(c4cccnc4)C3)cc2)CC1 [Example 39, 3-(pyridin-3-yl)-N-[4-({1-[3-(pyrrolidin-1-yl)propanoyl]piperidin-4-yl}oxy)phenyl]azetidine-1-carboxamide] | 90.5 nM | 0.338 nM | 115 nM |
| O=C(CC1CC1)N1CCC(Oc2ccc(NC(=O)N3CC(c4cccnc4)C3)cc2)CC1 [Example 40, N-(4-{[1-(cyclopropylacetyl)piperidin-4-yl]oxy}phenyl)-3-(pyridin-3-yl)azetidine-1-carboxamide] | 50.5 nM | 0.419 nM | 26.4 nM |
| CCC(C)CC(=O)N1CCC(Oc2ccc(NC(=O)N3CC(c4cccnc4)C3)cc2)CC1 (stereo not drawn) [Example 41, N-(4-{[1-(3-methylpentanoyl)piperidin-4-yl]oxy}phenyl)-3-(pyridin-3-yl)azetidine-1-carboxamide] | 76.8 nM | 0.448 nM | 69.8 nM |
| CC(C)CCC(=O)N1CCC(Oc2ccc(NC(=O)N3CC(c4cccnc4)C3)cc2)CC1 [Example 42, N-(4-{[1-(4-methylpentanoyl)piperidin-4-yl]oxy}phenyl)-3-(pyridin-3-yl)azetidine-1-carboxamide] | 43.8 nM | 0.27 nM | 100 nM |
| CC(C)(C)CC(=O)N1CCC(Oc2ccc(NC(=O)N3CC(c4cccnc4)C3)cc2)CC1 [Example 45, N-(4-{[1-(3,3-dimethylbutanoyl)piperidin-4-yl]oxy}phenyl)-3-(pyridin-3-yl)azetidine-1-carboxamide] | 34.3 nM | 0.223 nM | 63.4 nM |
| O=C(NCC1CCOC1)c1ccc(NC(=O)N2CC(c3cccnc3)C2)cc1 (stereo not drawn) [Example 49, 3-(pyridin-3-yl)-N-{4-[(tetrahydrofuran-3-ylmethyl)carbamoyl]phenyl}azetidine-1-carboxamide] | 150 nM | 0.245 nM | 80.1 nM |
| CC(C)(O)C(=O)N1CCC(c2ccc(NC(=O)N3CC(c4cccnc4)C3)cc2)CC1 [Example 51, N-{4-[1-(2-hydroxy-2-methylpropanoyl)piperidin-4-yl]phenyl}-3-(pyridin-3-yl)azetidine-1-carboxamide] | 17.2 nM | 0.303 nM | 1.78 nM |
| O=C(Nc1ccc(C2CCN(C(=O)c3ccccc3)CC2)cc1)N1CC(c2cccnc2)C1 [Example 57, N-[4-(1-benzoylpiperidin-4-yl)phenyl]-3-(pyridin-3-yl)azetidine-1-carboxamide] | 6.85 nM | 0.222 nM | 3.58 nM |
| CC(C)(C)OC(=O)N1CCC(c2ccc(NC(=O)N3CC(c4cccnc4)C3)cc2)C1 (stereo not drawn) [Example 59, tert-butyl 3-[4-({[3-(pyridin-3-yl)azetidin-1-yl]carbonyl}amino)phenyl]pyrrolidine-1-carboxylate] | 38.5 nM | 0.364 nM | 68.5 nM |

Results, then the compound that gave them:

| IC50 (NAMPT [1]) | IC50 (NAMPT [2]) | IC50 (PC3 cells) | Compound |
| --- | --- | --- | --- |
| 18.8 nM | 0.209 nM | 58.7 nM | O=C(Nc1ccc(OC2CCN(C(=O)c3cccs3)CC2)cc1)N1CC(c2cccnc2)C1 [Example 32, 3-(pyridin-3-yl)-N-(4-{[1-(thiophen-2-ylcarbonyl)piperidin-4-yl]oxy}phenyl)azetidine-1-carboxamide] |
| 56.1 nM | 0.43 nM | 68.7 nM | O=C(Nc1ccc(OC2CCN(C(=O)c3ccsc3)CC2)cc1)N1CC(c2cccnc2)C1 [Example 33, 3-(pyridin-3-yl)-N-(4-{[1-(thiophen-3-ylcarbonyl)piperidin-4-yl]oxy}phenyl)azetidine-1-carboxamide] |
| 89.2 nM | 0.492 nM | 90.2 nM | CC1CC1C(=O)N1CCC(Oc2ccc(NC(=O)N3CC(c4cccnc4)C3)cc2)CC1 (stereo not drawn) [Example 35, N-[4-({1-[(2-methylcyclopropyl)carbonyl]piperidin-4-yl}oxy)phenyl]-3-(pyridin-3-yl)azetidine-1-carboxamide] |
| 23.7 nM | 0.234 nM | 28 nM | CCCC(=O)N1CCC(Oc2ccc(NC(=O)N3CC(c4cccnc4)C3)cc2)CC1 [Example 43, N-{4-[(1-butanoylpiperidin-4-yl)oxy]phenyl}-3-(pyridin-3-yl)azetidine-1-carboxamide] |
| 44.6 nM | 0.315 nM | 38.5 nM | CC(C)(C)C(=O)N1CCC(Oc2ccc(NC(=O)N3CC(c4cccnc4)C3)cc2)CC1 [Example 44, N-(4-{[1-(2,2-dimethylpropanoyl)piperidin-4-yl]oxy}phenyl)-3-(pyridin-3-yl)azetidine-1-carboxamide] |
| 93.1 nM | 0.226 nM | 44.2 nM | CCOCC(=O)N1CCC(Oc2ccc(NC(=O)N3CC(c4cccnc4)C3)cc2)CC1 [Example 46, N-(4-{[1-(ethoxyacetyl)piperidin-4-yl]oxy}phenyl)-3-(pyridin-3-yl)azetidine-1-carboxamide] |
| 30.3 nM | 0.268 nM | 64 nM | O=C(Nc1ccc(OC2CCN(C(=O)C3CC3)CC2)cc1)N1CC(c2cccnc2)C1 [Example 47, N-(4-{[1-(cyclopropylcarbonyl)piperidin-4-yl]oxy}phenyl)-3-(pyridin-3-yl)azetidine-1-carboxamide] |
